# Assay results as given in US7220731B2, “Derivatised carbohydrates and their use in solid delivery systems” (Elan Drug Delivery Limited, priority 2000, dated 2007).
# Legend:
# [1] = glass temperature of the compound; assay type: physicochemical
# log pow = assay type: physicochemical; details: octanol/water
# water solubility (glass) = assay type: physicochemical
# [2] = physical stability (t½ induction) at 40° C./75% RH; assay type: physicochemical
# [3] = hydrolytic stability (t½) at 20° C.; assay type: physicochemical; details: buffer
structure (smiles),measurement,setting,value
"CC(=O)OC1C(O[C@@H]2OC(COC(=O)C3O[C@H](OC(C)=O)C(OC(C)=O)C(OC(C)=O)[C@@H]3OC(C)=O)[C@@H](OC(C)=O)C(OC(C)=O)C2OC(C)=O)OC(COC(=O)C2O[C@H](OC(C)=O)C(OC(C)=O)C(OC(C)=O)[C@H]2OC(C)=O)[C@@H](OC(C)=O)C1OC(C)=O (stereo partly drawn) [Example 1, di(β-tetraacetylglucuronyl)hexaacetyltrehalose]",glass temperature,[1],110 °C
same,logP,log pow,2.9
same,water solubility (glass),water solubility (glass),9.5 ppm
same,physical stability (t½ induction),[2],>1176 h
same,half-life,[3]; pH 4,12 h
same,half-life,[3]; pH 7,14 h
same,half-life,[3]; pH 9,< 1 h
same,melting point,,156 °C
